From ChEMBL document CHEMBL1201862, “PubChem BioAssay data set” (2004)
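Results reflect a 48-hour exposure of cells in 96-well plates to compound at five concentrations. At the GI50, growth is halved.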 The source made the active and inactive calls. No stated cut-off is given here; in the data, active = GI50 up to about 1.1 µM and inactive = higher.

Columns and labels:
Experiment in all cases: NCI tumour cell line growth inhibition, 48 h
[1] = tested on: CAKI-1
[2] = tested on: M14
[3] = tested on: ACHN
[4] = tested on: HCT-15
[5] = tested on: SK-OV-3
[6] = tested on: NCI-H226
[7] = tested on: SNB-75
[8] = tested on: SF-539
[9] = tested on: 786-0
[10] = tested on: NCI-H460
[11] = tested on: RPMI-8226
[12] = tested on: Malme-3M
[13] = tested on: MDA-MB-435
[14] = tested on: EKVX
[15] = tested on: KM12
[16] = tested on: SK-MEL-2
[17] = tested on: U-251
[18] = tested on: SW-620
[19] = tested on: SF-295
[20] = tested on: NCI/ADR-RES
[21] = tested on: MDA-N
[22] = tested on: SK-MEL-5
[23] = tested on: T47D
[24] = tested on: RXF 393
[25] = tested on: LOX IMVI
[26] = tested on: UO-31
[27] = tested on: OVCAR-4
[28] = tested on: PC-3
[29] = tested on: Hs-578T
[30] = tested on: OVCAR-5
[31] = tested on: A549
[32] = tested on: A498
[33] = tested on: SF-268
[34] = tested on: CCRF-CEM
[35] = tested on: HT-29
[36] = tested on: SNB-19
[37] = tested on: NCI-H522
[38] = tested on: COLO 205
[39] = tested on: K562
[40] = tested on: SK-MEL-28
[41] = tested on: IGROV-1
[42] = tested on: NCI-H23
[43] = tested on: UACC-257
[44] = tested on: DU-145
[45] = tested on: OVCAR-8
[46] = tested on: MCF7
[47] = tested on: OVCAR-3
[48] = tested on: SR
[49] = tested on: TK-10
[50] = tested on: BT-549
[51] = tested on: MDA-MB-231
[52] = tested on: UACC-62
[53] = tested on: SN12C
[54] = tested on: HOP-92
[55] = tested on: HCC 2998
[56] = tested on: HOP-62
[57] = tested on: HCT-116
[58] = tested on: MOLT-4

## CNC(=O)OCc1c2ccncc2c(C)c2c1[nH]c1ccccc12
[1]
  GI50: 0.141 µM (active)
[2]
  GI50: 1.18 µM (inactive)
[3]
  GI50: 0.0841 µM (active)
[4]
  GI50: 0.234 µM
[5]
  GI50: 0.288 µM (active)
[6]
  GI50: 0.258 µM (active)
[7]
  GI50: 0.21 µM (active)
[8]
  GI50: 0.207 µM (active)
[9]
  GI50: 0.262 µM (active)
[10]
  GI50: 0.167 µM (active)
[11]
  GI50: 0.134 µM (active)
[12]
  GI50: 0.372 µM (active)
[13]
  GI50: 0.421 µM (active)
[14]
  GI50: 0.372 µM (active)
[15]
  GI50: 0.449 µM (active)
[16]
  GI50: 0.261 µM (active)
[17]
  GI50: 0.223 µM (active)
[18]
  GI50: 0.136 µM (active)
[19]
  GI50: 0.292 µM (active)
[20]
  GI50: 0.24 µM (active)
[21]
  GI50: 0.501 µM (active)
[22]
  GI50: 0.242 µM (active)
[23]
  GI50: 0.331 µM (active)
[24]
  GI50: < 0.0385 µM (active)
[25]
  GI50: 0.136 µM (active)
[26]
  GI50: 0.231 µM (active)
[27]
  GI50: 0.271 µM (active)
[28]
  GI50: 0.723 µM (active)
[29]
  GI50: 0.413 µM (active)
[30]
  GI50: 0.296 µM (active)
[31]
  GI50: 0.251 µM (active)
[32]
  GI50: 0.202 µM (active)
[33]
  GI50: 0.272 µM (active)
[34]
  GI50: 0.0962 µM (active)
[35]
  GI50: 0.215 µM (active)
[36]
  GI50: 0.372 µM (active)
[37]
  GI50: 0.0646 µM (active)
[38]
  GI50: 0.443 µM (active)
[39]
  GI50: 0.275 µM (active)
[40]
  GI50: 0.818 µM (active)
[41]
  GI50: 0.182 µM (active)
[42]
  GI50: 0.195 µM (active)
[43]
  GI50: 0.587 µM (active)
[44]
  GI50: 0.269 µM (active)
[45]
  GI50: 0.125 µM (active)
[46]
  GI50: 0.0455 µM (active)
[47]
  GI50: 0.28 µM (active)
[48]
  GI50: < 0.01 µM (active)
[49]
  GI50: 0.237 µM (active)
[50]
  GI50: 0.32 µM (active)
[51]
  GI50: 0.48 µM (active)
[52]
  GI50: 0.238 µM (active)
[53]
  GI50: 0.275 µM (active)
[54]
  GI50: 0.695 µM (active)
[55]
  GI50: 0.206 µM (active)
[56]
  GI50: 0.494 µM (active)
[57]
  GI50: 0.184 µM (active)
[58]
  GI50: 0.0659 µM (active)
